# Patent publication US8946260B2, “17α-hydroxylase/C17,20-lyase inhibitors” (Novartis AG, priority 2010, dated 2015)
# pIC50: −log10 of the molar value. Structures can show the parent of a compound that is named as a salt.
# Biological target: T1, recombinant Human CYP17 enzyme (17-20 lyase) (Homo sapiens, UniProt P05093)
# T1 construct: made in house; host or cells: A549 cells, adenoviral expression system; purified cell membrane preparations
# T1 sequence (P05093 1-508): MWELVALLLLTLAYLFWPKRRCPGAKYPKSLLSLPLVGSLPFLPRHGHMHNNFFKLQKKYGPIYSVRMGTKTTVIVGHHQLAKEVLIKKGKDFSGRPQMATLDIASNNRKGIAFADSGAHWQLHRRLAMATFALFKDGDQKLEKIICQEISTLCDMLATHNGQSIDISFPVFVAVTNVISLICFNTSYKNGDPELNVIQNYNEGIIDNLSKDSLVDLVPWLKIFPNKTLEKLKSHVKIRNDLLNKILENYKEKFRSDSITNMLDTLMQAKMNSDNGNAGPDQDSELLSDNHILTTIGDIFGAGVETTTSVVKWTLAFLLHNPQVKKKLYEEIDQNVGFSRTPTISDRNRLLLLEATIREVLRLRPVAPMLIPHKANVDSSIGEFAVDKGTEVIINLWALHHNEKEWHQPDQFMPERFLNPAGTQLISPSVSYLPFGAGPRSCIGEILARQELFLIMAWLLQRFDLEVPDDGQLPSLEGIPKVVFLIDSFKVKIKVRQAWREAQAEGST
# Assay: Cytochrome P450, 17-20 lyase (CYP17-lyase) assay, 17-α-hydroxy pregnenolone [21-3H] as substrate
# Assay type: biochemical
# Settings: not given
# Description: 1) Cytochrome P450, 17-20 Lyase (CYP17-Lyase) Assay Development Using Recombinant Human CYP17 Enzyme and 17-α-Hydroxy Pregnenolone [21-3H] as the Substrate.
# Cytochrome P450, 17-α-Hydroxylase, 17-20 lyase (CYP17) is a multi functional enzyme that plays a key role in the biosynthesis of steroid hormones. It catalyses both conventional hydroxylation and also the carbon-carbon bond cleavage reactions (Peter Lee-Robichaud et al, Biochem. J, (1997) 321, 857-63). In the hydroxylation reaction, it converts progesterone and pregnenolone to the corresponding hydroxylated products 17-α-hydroxy progesterone and 17-α-hydroxy pregnenolone. In the lyase reaction, it catalyzes the conversion of these hydroxylated substrates to Androstenedione and Dehydroepiandrosterone (DHEA) respectively. In the Cyp17 lyase assay described here, the conversion of 17-α-hydroxy pregnenolone to Dehydroepiandrosterone and acetic acid is being monitored.
# Assay method was adopted from a published protocol with some modifications to suit our requirements (Dmitry N Grigoryev et al, Analytical Biochemistry, (1999) 267, 319-330). The conversion of 17-α-hydroxy pregnenolone to Dehydroepiandrosterone is accompanied by the release of acetic acid. In the Cyp17 lyase assay, 17-α-hydroxy pregnenolone labeled with tritium (3H) at position 21 is used as the substrate. Chloroform extraction removes the radioactive steroids and acetic acid is taken into aqueous layer. The tritiated acetic acid released in the assay thus extracted is quantified to determine the enzyme activity.
# Initial buffer conditions were, 50 mM Phosphate buffer, pH 7.5 was used as the starting buffer for Cyp17 lyase activity based on the data published in US patent publication No. US2004/0198773 A1. […] Human Cyp 17 gene was cloned and expressed in Adenoviral expression system in A549 cell lines. The purified cell membrane preparations were used as the source for Human CYP17 enzyme. Total protein concentration: 8 mg/mL.
# For routine screening, the assay was set up with 16 μg of enzyme in 50 μL reaction volume. 17α-hydroxy pregnenolone [21-3H] was added to a final concentration of 0.25 μM. NADPH is used at a final concentration of 4.2 mM. Total reaction volume was made up to 50 μL with 50 mM Phosphate buffer pH 7.5. The reaction mixture was incubated at room temperature for 90 minutes with gentle shaking. The reaction was stopped by the addition of 100 μL of buffer. 500 μL of 5% freshly prepared activated charcoal was added to the solution and mixed well by vortexing. The samples were centrifuged at 17568×g for 5 minutes. (14000 rpm). The supernatant was carefully transferred to fresh tube and 1.3 mL of scintillation fluid was added, mixed by vortexing.
# The radioactivity was measured in a 1450 MicroBeta TriLux™ scintillation counter from Wallac-Perkin Elmer®, USA. The measurements were carried out in 2.0 mL Eppendorf™ tubes. Each tube was counted for 1 minute. The amount of tritiated acetic acid released is proportional to the lyase activity. Percent lyase activity in presence of inhibitor was calculated using the formula given below.
# [formula] • Sample: Enzyme reaction in presence of inhibitor. • Positive control: Enzyme reaction without inhibitor but containing DMSO at 1% final concentration. • Blank—Contains all reagents except enzyme. • % Inhibition=100%−% Lyase activity
# For IC50 determination, the % inhibition was plotted as a function of inhibitor concentration. The data was fitted to sigmoidal equation using Graphpad Prism® software IV to generate IC50 values.
row,SMILES,pIC50
1,"CCn1c2c(c3cc(F)ccc31)C(=O)N(c1cnccc1C)CC2 [Example 59A, 5-ethyl-8-fluoro-2-(4-methylpyridin-3-yl)-2,3,4,5-tetrahydro-1H-pyrido[4,3-b]indol-1-one]",7.54

# Same assay, conditions: at 10 μM; read-out: hCYP17 Lyase % Inh
row,inhibition at 10 µM [%],SMILES
1,63,"Cc1ccncc1N1CCc2ccc(Oc3ncc(F)cn3)cc2C1=O [Example 37A, 7-(5-fluoropyrimidin-2-yloxy)-2-(4-methylpyridin-3-yl)-3,4-dihydroisoquinolin-1(2H)-one]"
2,76,"Cc1ccncc1N1CCc2ccc(F)c(NCC3CC3)c2C1=O [Example 39A, 8-(cyclopropylmethylamino)-7-fluoro-2-(4-methylpyridin-3-yl)-3,4-dihydroisoquinolin-1(2H)-one, acetate salt]"
3,12,"COc1cc2c(cc1OC)C(=O)N(c1cnccc1C)CC2 [Example 40A, 6,7-Dimethoxy-2-(4-methyl-pyridin-3-yl)-3,4-dihydro-2H-isoquinolin-1-one]"
4,10,"Cc1ccncc1N1CCc2cc(Cl)c(Cl)cc2C1=O [Example 41A, 6,7-dichloro-2-(4-methylpyridin-3-yl)-3,4-dihydroisoquinolin-1 (2H)-one]"
5,8,"COc1ccc(F)c2c1C(=O)N(c1cnccc1C)CC2 [Example 44A, 5-fluoro-8-methoxy-2-(4-methylpyridin-3-yl) 3,4-dihydroisoquinolin-1(2H)-one]"

# Same assay, conditions: human CYP17 lyase; substrate 0.25 μM; room temperature, 90 minutes
row,Lyase IC 50 nM Human,SMILES
1,NOT ACTIVE,"O=c1c2c(ccn1-c1cnccc1C(F)(F)F)[nH]c1ccccc12 [Example 63A, 2-(4-(trifluoromethyl)pyridin-3-yl)-2,5-dihydro-1H-pyrido[4,3-b]indol-1-one]"

# Same assay, conditions: human CYP17 lyase; substrate 0.25 μM; room temperature, 90 minutes; read-out: Lyase IC 50 nM Human
row,IC50 [nM],SMILES
1,13,"Cc1ccncc1N1CCc2ccc(Cl)c(F)c2C1=O [Example 33A, 7-chloro-8-fluoro-2-(4-methylpyridin-3-yl)-3,4-dihydroisoquinolin-1(2H)-one]"
2,149,"Cc1ccncc1N1CCc2ccc(F)c(Cl)c2C1=O [Example 34A, 8-chloro-7-fluoro-2-(4-methylpyridin-3-yl)-3,4-dihydroisoquinolin-1(2H)-one]"
3,54,"O=c1c2cc(C(F)(F)F)ccc2ccn1-c1cccnc1 [Example 36A, 2-(pyridin-3-yl)-7-(trifluoromethyl)isoquinolin-1(2H)-one]"
4,23,"CCn1c2c(c3ccccc31)CCN(c1cnccc1C)C2=O [Example 38A, 9-ethyl-2-(4-methylpyridin-3-yl)-2,3,4,9-tetrahydro-1H-pyrido[3,4-b]indol-1-one]"
5,55,"CCn1c2c(c3ccccc31)CC(C)N(c1cccnc1)C2=O (stereo not shown) [Example 42A, 9-ethyl-3-methyl-2-(pyridin-3-yl)-2,3,4,9-tetrahydro-1H-pyrido[3,4-b]indol-1-one]"
6,15,"CC1Cc2ccc(C(F)(F)F)cc2C(=O)N1c1cccnc1 (stereo not shown) [Example 43A, 3-Methyl-2-pyridin-3-yl-7-trifluoromethyl-3,4-dihydro-2H-isoquinolin-1-one]"
7,211,"Cc1ccncc1N1CCc2c(sc3ccc(F)cc23)C1=O [Example 45A, 6-Fluoro-2-(4-methyl-pyridin-3-yl)-3,4-dihydro-2H-benzo[4,5]thieno[2,3-c]pyridin-1-one]"
8,44,"CCn1c2c(c3ccccc31)CC(C)N(c1cnccc1C)C2=O (stereo not shown) [Example 46A, 9-Ethyl-3-methyl-2-(4-methyl-pyridin-3-yl)-2,3,4,9-tetrahydro-b-carbolin-1-one]"
9,12,"Cc1ccncc1N1CCc2ccc(C(F)(F)F)c(F)c2C1=O [Example 47A, 8-Fluoro-2-(4-methyl-pyridin-3-yl)-7-trifluoromethyl-3,4-dihydro-2H-isoquinolin-1-one]"
10,16,"Cc1ccncc1N1C(=O)c2cc(C(F)(F)F)ccc2CC1C (stereo not shown) [Example 48A, 3-Methyl-2-(4-methyl-pyridin-3-yl)-7-trifluoromethyl-3,4-dihydro-2H-isoquinolin-1-one]"
11,159,"Cc1ccncc1N1CCc2cc(F)c(F)cc2C1=O [Example 49A, 6,7-difluoro-2-(4-methylpyridin-3-yl)-3,4-dihydroisoquinolin-1(2H)-one]"
12,6,"Cc1ccncc1N1CCc2sc3ccc(F)cc3c2C1=O [Example 50A, 8-Fluoro-2-(4-methylpyridin-3-yl)-3,4-dihydrobenzo[4,5]thieno[3,2-c]pyridin-1(2H)-one]"
13,22,"Cc1ccncc1N1CCc2ccc(OC(F)(F)F)cc2C1=O [Example 51A, 2-(4-Methylpyridin-3-yl)-7-(trifluoromethoxy)-3,4-dihydroisoquinolin-1(2H)-one]"
14,556,"O=C1c2cc(C(F)(F)F)ccc2CCN1c1cnccc1CN1CCCC1 [Example 52A, 2-(4-(Pyrrolidin-1-ylmethyl)pyridin-3-yl)-7-(trifluoromethyl)-3,4-dihydroisoquinolin-1(2H)-one]"
15,50,"O=C1c2cc(C(F)(F)F)ccc2CCN1c1cnccc1CNC1CC1 [Example 53A, 2-(4-((cyclopropylamino)methyl)pyridin-3-yl)-7-(trifluoromethyl)-3,4-dihydroisoquinolin-1(2H)-one]"
16,19,"Cn1cncc1N1CCc2ccc(C(F)(F)F)cc2C1=O [Example 54A, 2-(1-methyl-1H-imidazol-5-yl)-7-(trifluoromethyl)-3,4-dihydroisoquinolin-1(2H)-one]"
17,125,"O=C1c2cc(Cl)c(Cl)cc2CCN1c1cnccc1C(F)(F)F [Example 55A, 6,7-dichloro-2-(4-(trifluoromethyl)pyridin-3-yl)-3,4-dihydroisoquinolin-1(2H)-one]"
18,1110,"O=C1c2ccc(C(F)(F)F)cc2CCN1c1cncc(F)c1 [Example 56A, 2-(5-fluoropyridin-3-yl)-6-(trifluoromethyl)-3,4-dihydroisoquinolin-(2H)-one]"
19,548,"O=C1c2c(sc3ccc(F)cc23)CCN1c1cnccc1C(F)(F)F [Example 57A, 8-Fluoro-2-(4-trifluoromethylpyridine-3-yl)-3,4-dihydro-2H-benzo[4,5]thieno[3,2-c]pyridin-1-one]"
20,218,"O=C1c2c(sc3ccccc23)CCN1c1cnccc1C(F)(F)F [Example 58A, 2-(4-trifluoromethylpyridine-3-yl)-3,4-dihydro-2H-benzo[4,5]thieno[3,2-c]pyridin-1-one]"
21,9,"Cc1ccncc1N1CCc2[nH]c3ccc(F)cc3c2C1=O [Example 60A, 8-fluoro-2-(4-methylpyridin-3-yl)-2,3,4,5-tetrahydro-1H-pyrido[4,3-b]indol-1-one]"
22,1510,"Cc1ccncc1N1CCc2c([nH]c3ccccc23)C1=O [Example 61A, 2-(4-methylpyridin-3-yl)-2,3,4,9-tetrahydro-1H-pyrido[3,4-b]indol-1-one]"
23,17,"Cc1ccncc1-n1ccc2[nH]c3ccccc3c2c1=O [Example 62A, 2-(4-methylpyridin-3-yl)-2,5-dihydro-1H-pyrido[4,3-b]indol-1-one]"
24,829,"O=c1c2c(ccn1-c1cnccc1C(F)(F)F)[nH]c1ccc(F)cc12 [Example 64A, 8-fluoro-2-(4-(trifluoromethyl)pyridin-3-yl)-2,5-dihydro-1H-pyrido[4,3-b]indol-1-one]"
